# Data from US20180028526A1, “NALMEFENE FOR REDUCTION OF ALCOHOL CONSUMPTION IN SPECIFIC TARGET POPULATIONS” (H. Lundbeck A/S, priority 2012, published 2018).
# Assays:
# [1] = tested on: patients with alcohol dependence; experiment: Studies 12014A, 12023A and 12013A taken together (statements on all three studies); format: in vivo, human; details: for Difference between nalmefene and placebo in HDDs and TAC, compared with total study population: all three studies
# Excerpt: The efficacy of nalmefene in the reduction of alcohol consumption in patients with alcohol dependence (DSM-IV) has been evaluated in two efficacy studies (Study 12014A and Study 12023A) and one safety study (Study 12013A) as described in the examples. All three studies were randomized, double blind, parallel-group and placebo-controlled.
# The studies included outpatients, aged […], with a primary diagnosis of alcohol dependence. A patient was eligible for participation in the study if, in the 4 weeks preceding the Screening Visit (Baseline period), he/she had >6 HDDs, at least a medium DRL (calculated as mean daily alcohol consumption in g/day i.e. >40 g/day for men and >20 g/day for women calculated as mean daily alcohol consumption over the 4 week period preceding the screening visit), and ≦14 consecutive abstinent days. The timeline followback (TLFB) method was used to obtain estimates of the patient's daily drinking.
# At the initial visit (screening visit), the patients' clinical status, social situation, and alcohol consumption pattern were evaluated. After a 1- to 2-week observation period the drinking risk level was re-assessed by calculating mean daily alcohol consumption in g/day over the 1- to 2-week observation period, and treatment with nalmefene was initiated together with counseling with focus on motivating the patients to adhere to the treatment and to change their drinking behavior.
# The efficacy of nalmefene was measured using two co-primary endpoints: the change in the monthly number of heavy drinking days (HDDs) and the change in the mean daily total alcohol consumption (TAC) per month (=28 days).
# The efficacy of nalmefene on the reduction of alcohol consumption in patients with alcohol dependence (DSM-IV) was evaluated in two efficacy studies (Study 12014A and Study 12023A). Both studies were randomised, double blind, two-parallel group, placebo controlled, and after 6 months of treatment, patients receiving nalmefene were re-randomised to receive either placebo or nalmefene in a 1 month run out period. The efficacy of nalmefene was also evaluated in a randomised, double blind, two parallel group, placebo controlled 1 year safety study (Study 12013A). The studies included 1941 patients, 1144 of whom were treated with nalmefene 18 mg in an as-needed dosing regimen.
# The efficacy of nalmefene was measured using two co-primary endpoints: the change in the monthly number of heavy drinking days (HDDs) and the change in the mean daily total alcohol consumption (TAC) per month (=28 days). A HDD was defined as a day with a consumption ≧60 g alcohol for men and 40 g for women. The change in HDD and TAC over time in patients treated with nalmefene or placebo is furthermore reflected in FIGS. 1a and 1b-12a and 12b.
# alcohol dependence [2] = details: 20 to 80 mg daily oral dosing; double-blind, placebo-controlled; Mason et al. 1999; cited from earlier work
# alcohol dependence [3] = details: 5, 20 and 40 mg daily doses; Anton et al. 2004; cited from earlier work
# alcohol dependence [4] = details: 20 mg taken when the patient experienced a craving for alcohol; Karhuvaara et al. 2007; cited from earlier work
compound,measurement,setting,value
"C=C1CC[C@@]2(O)[C@H]3Cc4ccc(O)c5c4[C@@]2(CCN3CC2CC2)[C@H]1O5 [nalmefene, 17-(cyclopropylmethyl)-4,5-alpha-epoxy-6-methylenemorphinan-3,14-diol]","Difference between nalmefene and placebo in HDDs and TAC, compared with total study population",[1]; patients excluding ERs,more pronounced
same,"Difference between nalmefene and placebo in HDDs and TAC, compared with total study population",[1]; patients with High DRL at baseline,more pronounced
same,"Difference between nalmefene and placebo in HDDs and TAC, compared with total study population",[1]; patients with High DRL at baseline and randomization,more pronounced
same,Reducing the number of HDDs and TAC versus placebo,"[1]; month 6, two 6 month efficacy studies and 12 month safety study, total study population",superior to placebo
same,Effect in the management of alcohol dependence,alcohol dependence [2],good effect
same,Superiority over placebo in the management of alcohol dependence,alcohol dependence [3],no evidence of superiority
same,Effect over placebo in the management of alcohol dependence,alcohol dependence [4],good effect
